Biological target: P2X7 (Homo sapiens (Human), UniProt Q99572)
Test: P2X7 antagonism in human peripheral blood mononuclear cells (PBMCs), IL-1β release
Assay type: cell-based
Conditions: P2X7; Table 3 (additional runs); 10 μM compound; read-out: PBMC 10 μM (% control)
Experimental: P2X7 Antagonism in Human Peripheral Blood Mononuclear Cells (PBMCs) and Human Whole Blood.
Human blood was collected using a blood donor program. PBMCs were isolated from blood using a Ficoll density gradient technique. Briefly, blood was laid on Ficoll solution and centrifuged at RT for 20 minutes at 2000 rpm. The buffy layer (between red blood cells and plasma) was carefully collected by aspiration, washed with PBS and centrifuged again at 1500 rpm for 15 minutes. The resulting cell pellet was washed and plated on 96 well-plates for experiments. For the Human Whole Blood experiments, 150 μl of human blood was platted on 96 well-plates. Lipopolysaccharide (LPS) (30 ng/ml) was added to each well and incubated for 1 hour. Test compounds were then added and incubated for 30 minutes. The P2X7 agonist, 2′(3′)-O-(4-benzoylbenzoyl) adenosine 5′-triphosphate (Bz-ATP) was then added at a final concentration of 0.5 mM (PBMC) or 1 mM (blood). Cells were incubated for an additional 1.5 hours. At that point, supernatant was collected and stored for IL-1β assay using manufacturer's protocol for enzyme-linked immunosorbent assay (ELISA). Data was expressed as percent control, where control is defined as the difference in IL-1β release in LPS+Bz-ATP samples and LPS only samples. Data was plotted as response (% control) versus concentration to generate IC50 values. […] Data are analyzed and graphed on Graphpad Prism 5. For analysis, each concentration point is averaged from triplicate values and the averaged values are plotted on Graphpad Prism.

Chain of P2X7 (Q99572 whole entry): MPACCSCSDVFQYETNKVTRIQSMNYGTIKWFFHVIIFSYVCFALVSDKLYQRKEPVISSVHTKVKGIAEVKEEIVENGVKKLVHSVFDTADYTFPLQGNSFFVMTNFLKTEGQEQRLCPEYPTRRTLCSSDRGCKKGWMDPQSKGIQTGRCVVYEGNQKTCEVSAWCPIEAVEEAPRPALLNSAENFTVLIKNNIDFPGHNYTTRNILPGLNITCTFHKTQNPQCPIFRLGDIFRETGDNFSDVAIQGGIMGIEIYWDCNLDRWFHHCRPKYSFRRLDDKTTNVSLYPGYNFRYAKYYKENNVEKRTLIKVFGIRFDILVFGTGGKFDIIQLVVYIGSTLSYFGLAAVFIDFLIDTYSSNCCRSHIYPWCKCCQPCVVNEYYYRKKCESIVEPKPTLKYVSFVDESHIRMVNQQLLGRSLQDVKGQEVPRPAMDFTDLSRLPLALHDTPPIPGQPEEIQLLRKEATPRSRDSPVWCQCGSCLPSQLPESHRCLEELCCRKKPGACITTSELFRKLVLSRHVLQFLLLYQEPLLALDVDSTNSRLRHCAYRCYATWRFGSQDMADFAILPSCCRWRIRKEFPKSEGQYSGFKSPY

Row | Compound | remaining activity at 10 µM
1 | CC(c1cccc(C(F)(F)F)c1Cl)N1CCn2c(nnc2-c2cnccn2)C1=O (racemic) [Example 4, (±)7-{1-[2-Chloro-3-(trifluoromethyl)phenyl]ethyl}-3-pyrazin-2-yl-6,7-dihydro[1,2,4]triazolo[4,3-a]pyrazin-8(5H)-one] | 46%
2 | CC1Cn2c(nnc2-c2cnccn2)C(=O)N1Cc1cccc(Cl)c1Cl (racemic) [Example 11, (±)-7-(2,3-Dichlorobenzyl)-6-methyl-3-pyrazin-2-yl-6,7-dihydro[1,2,4]triazolo[4,3-a]pyrazin-8(5H)-one] | -0.4%
3 | CC1Cn2c(nnc2-c2cnccn2)C(=O)N1Cc1cccc(C(F)(F)F)c1Cl (racemic) [Example 14, (±)-7-[2-Chloro-3-(trifluoromethyl)benzyl]-6-methyl-3-pyrazin-2-yl-6,7-dihydro[1,2,4]triazolo[4,3-a]pyrazin-8(5H)-one] | 2.5%
4 | O=C1c2nnc(-c3cnccn3)n2CC(C2CC2)N1Cc1cccc(C(F)(F)F)c1Cl (racemic) [Example 61, (±)-7-[2-Chloro-3-(trifluoromethyl)benzyl]-6-cyclopropyl-3-pyrazin-2-yl-6,7-dihydro[1,2,4]triazolo[4,3-a]pyrazin-8(5H)-one] | -1%
5 | O=C1c2nnc(-c3ncccn3)n2CC(C2CC2)N1Cc1cccc(C(F)(F)F)c1Cl (racemic) [Example 64, (±)-7-[2-Chloro-3-(trifluoromethyl)benzyl]-6-cyclopropyl-3-pyrimidin-2-yl-6,7-dihydro[1,2,4]triazolo[4,3-a]pyrazin-8(5H)-one] | -0.4%
6 | O=C1c2nnc(-c3cccnc3)n2CC(C2CC2)N1Cc1cccc(C(F)(F)F)c1Cl (racemic) [Example 67, (±)-7-[2-Chloro-3-(trifluoromethyl)benzyl]-6-cyclopropyl-3-pyridin-3-yl-6,7-dihydro[1,2,4]triazolo[4,3-a]pyrazin-8(5H)-one] | 6.9%
7 | O=C1c2nnc(-c3cc[nH]n3)n2CC(C2CC2)N1Cc1cccc(C(F)(F)F)c1Cl (racemic) [Example 68, (±)-7-[2-Chloro-3-(trifluoromethyl)benzyl]-6-cyclopropyl-3-(1H-pyrazol-3-yl)-6,7-dihydro[1,2,4]triazolo[4,3-a]pyrazin-8(5H)-one] | 1.6%
8 | O=C1c2nnc(-c3ccc(F)cn3)n2CC(C2CC2)N1Cc1cccc(C(F)(F)F)c1Cl (racemic) [Example 69, (±)-7-[2-Chloro-3-(trifluoromethyl)benzyl]-6-cyclopropyl-3-(5-fluoropyridin-2-yl)-6,7-dihydro[1,2,4]triazolo[4,3-a]pyrazin-8(5H)-one] | 20.8%
9 | O=C1c2nnc(-c3ncc(F)cn3)n2CC(C2CC2)N1Cc1cccc(C(F)(F)F)c1Cl (racemic) [Example 70, (±)-7-[2-Chloro-3-(trifluoromethyl)benzyl]-6-cyclopropyl-3-(5-fluoropyrimidin-2-yl)-6,7-dihydro[1,2,4]triazolo[4,3-a]pyrazin-8(5H)-one] | 9.1%
10 | C[C@H](c1ccccc1)N1C(=O)c2nnc(-c3cnccn3)n2C[C@@H]1C (relative stereo) [Example 94, (6S)-6-Methyl-7[(1R*)-1-phenylethyl]-3-pyrazin-2-yl-6,7-dihydro[1,2,4]triazolo[4,3-a]pyrazin-8(5H)-one] | -1.3%
11 | C[C@H]1Cn2c(nnc2-c2cnccn2)C(=O)N1[C@@H](C)c1ccccc1 (relative stereo) [Example 95, (6S)-6-Methyl-7-[(1S*)-1-phenylethyl]-3-pyrazin-2-yl-6,7-dihydro[1,2,4]triazolo[4,3-a]pyrazin-8(5H)-one] | 3.1%
12 | O=C1c2nnc(-c3ccc(F)cc3)n2CCN1Cc1cccc(C(F)(F)F)c1Cl [Example 1, 7-[2-Chloro-3-(trifluoromethyl)benzyl]-3-(4-fluorophenyl)-6,7-dihydro[1,2,4]triazolo[4,3-a]pyrazin-8(5H)-one] | 25.4%
13 | O=C1c2nnc(-c3cnccn3)n2CCN1Cc1c(Cl)cccc1Cl [Example 5, 7-(2,6-Dichlorobenzyl)-3-pyrazin-2-yl-6,7-dihydro[1,2,4]triazolo[4,3-a]pyrazin-8(5H)-one] | 8.8%
14 | O=C1c2nnc(-c3cnccn3)n2CCN1Cc1cccc(F)c1F [Example 6, 7-(2,3-Difluorobenzyl)-3-pyrazin-2-yl-6,7-dihydro[1,2,4]triazolo[4,3-a]pyrazin-8(5H)-one] | 23.7%
15 | CS(=O)(=O)c1cc(Cl)ccc1CN1CCn2c(nnc2-c2cnccn2)C1=O [Example 7, 7-[4-Chloro-2-(methylsulfonyl)benzyl]-3-pyrazin-2-yl-6,7-dihydro[1,2,4]triazolo[4,3-a]pyrazin-8(5H)-one] | 8.8%
16 | O=C1c2nnc(-c3ccccn3)n2CCN1Cc1cccc(Cl)c1Cl [Example 8, 7-(2,3-Dichlorobenzyl)-3-pyridin-2-yl-6,7-dihydro[1,2,4]triazolo[4,3-a]pyrazin-8(5H)-one] | -10.6%
17 | O=C1c2nnc(-c3ccccn3)n2CCN1Cc1cccc(C(F)(F)F)c1Cl [Example 9, 7-[2-Chloro-3-(trifluoromethyl)benzyl]-3-pyridin-2-yl-6,7-dihydro[1,2,4]triazolo[4,3-a]pyrazin-8(5H)-one] | -3.1%
18 | Cc1c(CN2CCn3c(nnc3-c3ccccn3)C2=O)cccc1C(F)(F)F [Example 10, 7-[2-Methyl-3-(trifluoromethyl)benzyl]-3-pyridin-2-yl-6,7-dihydro[1,2,4]triazolo[4,3-a]pyrazin-8(5H)-one] | 59.3%
19 | C[C@H]1Cn2c(nnc2-c2cnccn2)C(=O)N1Cc1cccc(Cl)c1Cl [Example 13, (6S)-7-(2,3-Dichlorobenzyl)-6-methyl-3-pyrazin-2-yl-6,7-dihydro[1,2,4]triazolo[4,3-a]pyrazin-8(5H)-one] | 8.2%
20 | C[C@@H]1Cn2c(nnc2-c2cnccn2)C(=O)N1Cc1cccc(C(F)(F)F)c1Cl [Example 15, (6R)-7-[2-Chloro-3-(trifluoromethyl)benzyl]-6-methyl-3-pyrazin-2-yl-6,7-dihydro[1,2,4]triazolo[4,3-a]pyrazin-8(5H)-one] | 4.1%
21 | C[C@H]1Cn2c(nnc2-c2cnccn2)C(=O)N1Cc1cccc(C(F)(F)F)c1Cl [Example 16, (6S)-7-[2-Chloro-3-(trifluoromethyl)benzyl]-6-methyl-3-pyrazin-2-yl-6,7-dihydro[1,2,4]triazolo[4,3-a]pyrazin-8(5H)-one] | 8.4%
22 | C[C@H]1Cn2c(nnc2-c2ccc(F)cc2)C(=O)N1Cc1cccc(C(F)(F)F)c1Cl [Example 17, (6S)-7-[2-Chloro-3-(trifluoromethyl)benzyl]-3-(4-fluorophenyl)-6-methyl-6,7-dihydro[1,2,4]triazolo[4,3-a]pyrazin-8(5H)-one] | 2%
23 | C[C@H]1Cn2c(nnc2-c2ccccn2)C(=O)N1Cc1cccc(C(F)(F)F)c1Cl [Example 18, (6S)-7-[2-Chloro-3-(trifluoromethyl)benzyl]-6-methyl-3-pyridin-2-yl-6,7-dihydro[1,2,4]triazolo[4,3-a]pyrazin-8(5H)-one] | -6.2%
24 | Cc1cnc(-c2nnc3n2C[C@H](C)N(Cc2cccc(C(F)(F)F)c2Cl)C3=O)cn1 [Example 19, (6S)-7-[2-Chloro-3-(trifluoromethyl)benzyl]-6-methyl-3-(5-methylpyrazin-2-yl)-6,7-dihydro[1,2,4]triazolo[4,3-a]pyrazin-8(5H)-one] | -9.5%
25 | C[C@H]1Cn2c(nnc2-c2ncco2)C(=O)N1Cc1cccc(C(F)(F)F)c1Cl [Example 20, (6S)-7-[2-Chloro-3-(trifluoromethyl)benzyl]-6-methyl-3-(1,3-oxazol-2-yl)-6,7-dihydro[1,2,4]triazolo[4,3-a]pyrazin-8(5H)-one] | 4.7%
26 | C[C@H]1Cn2c(nnc2-c2cocn2)C(=O)N1Cc1cccc(C(F)(F)F)c1Cl [Example 21, (6S)-7-[2-Chloro-3-(trifluoromethyl)benzyl]-6-methyl-3-(1,3-oxazol-4-yl)-6,7-dihydro[1,2,4]triazolo[4,3-a]pyrazin-8(5H)-one] | -3.4%
27 | C[C@H]1Cn2c(nnc2-c2cnco2)C(=O)N1Cc1cccc(C(F)(F)F)c1Cl [Example 22, (6S)-7-[2-Chloro-3-(trifluoromethyl)benzyl]-6-methyl-3-(1,3-oxazol-5-yl)-6,7-dihydro[1,2,4]triazolo[4,3-a]pyrazin-8(5H)-one] | -3.9%
28 | C[C@H]1Cn2c(nnc2-c2ccn(C)n2)C(=O)N1Cc1cccc(C(F)(F)F)c1Cl [Example 23, (6S)-7-[2-Chloro-3-(trifluoromethyl)benzyl]-6-methyl-3-(1-methyl-1H-pyrazol-3-yl)-6,7-dihydro[1,2,4]triazolo[4,3-a]pyrazin-8(5H)-one] | -7%

Same assay, conditions: Table 2; 10 μM compound; IL-1β release, LPS + 0.5 mM Bz-ATP

Row | Compound | PBMC 10 μM (% control)
29 | C[C@H]1Cn2c(nnc2-c2cnccn2)C(=O)N1Cc1cccc(Cl)c1Cl [Example 13, (6S)-7-(2,3-Dichlorobenzyl)-6-methyl-3-pyrazin-2-yl-6,7-dihydro[1,2,4]triazolo[4,3-a]pyrazin-8(5H)-one] | 15.4 % control
30 | C[C@H]1Cn2c(nnc2-c2cnccn2)C(=O)N1Cc1cccc(C(F)(F)F)c1Cl [Example 16, (6S)-7-[2-Chloro-3-(trifluoromethyl)benzyl]-6-methyl-3-pyrazin-2-yl-6,7-dihydro[1,2,4]triazolo[4,3-a]pyrazin-8(5H)-one] | 13.4 % control

Same assay, conditions: Table 3 (additional runs); 1 μM compound

Row | Compound | PBMC 1 μM (% control)
31 | O=C1c2nnc(-c3cnccn3)n2CCN1Cc1cccc(C(F)(F)F)c1Cl [Example 3, 7-[2-Chloro-3-(trifluoromethyl)benzyl]-3-pyrazin-2-yl-6,7-dihydro[1,2,4]triazolo[4,3-a]pyrazin-8(5H)-one] | −0.6 % control

From US10053463B2 (Janssen Pharmaceutica NV, priority 2013, dated 2018)
